# Measured values taken from the supplement of paper PMC10307832.
# Compound: Cn1nnc2c(C(N)=O)ncn2c1=O [Temozolomide] + O=C(c1cc(Cc2n[nH]c(=O)c3ccccc23)ccc1F)N1CCN(C(=O)C2CC2)CC1 [Olaparib] (partner 8 µM)
# Test: relative viability (nuclei count vs DMSO), 5 days (fraction); higher = more cells survive
# Conditions: first compound 2 µM
# In short: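 Values are medians from duplicate plates. Each reflects relative viability, defined as the nuclei count of treated wells over that of vehicle wells. Lung cancer cell lines in 1536-well plates were pin-tool dosed one day after seeding with one drug alone or with a fixed anchor-drug dose plus five library-drug doses (not always all listed) in √10 steps, then fixed, stained and imaged at 4× after 5 days.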
row,Cell Line,relative viability
1,NCI-H596,0.764
2,NCI-H647,0.5
3,NCI-H650,0.358
4,NCI-H661,0.731
5,NCI-H727,0.791
6,NCI-H838,0.818
7,NCI-H1299,0.957
8,NCI-H1355,0.723
9,NCI-H1395,0.51
10,NCI-H1437,0.632
11,NCI-H1648,0.654
12,NCI-H1650,0.776
13,NCI-H1651,0.173
14,NCI-H1666,0.771
15,NCI-H1734,0.577
16,NCI-H1755,0.926
17,NCI-H1792,0.251
18,NCI-H1793,1.07

# Same assay, conditions: first compound 6.325 µM
row,Cell Line,relative viability
1,201T,0.809
2,A549,0.17
3,A-427,0.47
4,ABC-1,0.85
5,BEN,0.736
6,CAL-12T,0.697
7,COR-L23,0.257
8,COR-L 105,0.661
9,Calu-6,0.484
10,ChaGo-K-1,0.315
11,EBC-1,0.666
12,EKVX,0.79
13,EMC-BAC-2,0.367
14,EPLC-272H,0.914
15,H3255,0.477
16,HARA,1.01
17,HCC-15,0.637
18,HCC-44,1.02
19,HCC-366,0.311
20,HCC-827,0.432
21,HOP-62,0.277
22,IA-LM,0.759
23,LC-2-ad,0.591
24,LCLC-97TM1,0.238
25,LCLC-103H,0.731
26,LK-2,0.355
27,LOU-NH91,0.863

row,Cell Line,relative viability
1,LU99A,0.155
2,LXF-289,0.951
3,NCI-H23,0.266
4,NCI-H322M,0.692
5,NCI-H358,0.545
6,NCI-H441,0.527
7,NCI-H460,0.317
8,NCI-H520,0.284
9,NCI-H522,0.574
10,NCI-H596,0.677
11,NCI-H647,0.176
12,NCI-H650,0.274
13,NCI-H661,0.634
14,NCI-H727,0.516
15,NCI-H838,0.719
16,NCI-H1299,0.923
17,NCI-H1355,0.646
18,NCI-H1395,0.354
19,NCI-H1437,0.583
20,NCI-H1648,0.826
21,NCI-H1650,0.672
22,NCI-H1651,0.145
23,NCI-H1666,0.639
24,NCI-H1734,0.614
25,NCI-H1755,0.829
26,NCI-H1792,0.361
27,NCI-H1793,0.685

# Same assay, conditions: first compound 20 µM
row,Cell Line,relative viability
1,201T,0.742
2,A549,0.117
3,A-427,0.325
4,ABC-1,0.696
5,BEN,0.401
6,CAL-12T,0.606
7,COR-L23,0.189
8,COR-L 105,0.693
9,Calu-6,0.259
10,ChaGo-K-1,0.228
11,EBC-1,0.5
12,EKVX,0.479
13,EMC-BAC-2,0.271
14,EPLC-272H,0.49
15,H3255,0.345
16,HARA,0.444
17,HCC-15,0.589
18,HCC-44,0.854
19,HCC-78,0.471
20,HCC-366,0.17
21,HCC-827,0.107
22,HOP-62,0.129
23,IA-LM,0.694
24,LC-2-ad,0.468
25,LCLC-97TM1,0.226
26,LCLC-103H,0.617
27,LK-2,0.257
28,LOU-NH91,0.547

row,Cell Line,relative viability
1,LU99A,0.119
2,LXF-289,0.774
3,NCI-H23,0.22
4,NCI-H322M,0.555
5,NCI-H358,0.351
6,NCI-H441,0.337
7,NCI-H460,0.214
8,NCI-H520,0.242
9,NCI-H522,0.469
10,NCI-H596,0.657
11,NCI-H647,0.0916
12,NCI-H650,0.202
13,NCI-H661,0.551
14,NCI-H727,0.55
15,NCI-H838,0.687
16,NCI-H1299,0.967
17,NCI-H1355,0.617
18,NCI-H1395,0.385
19,NCI-H1437,0.523
20,NCI-H1648,0.468
21,NCI-H1650,0.703
22,NCI-H1651,0.0979
23,NCI-H1666,0.604
24,NCI-H1734,0.373
25,NCI-H1755,0.568
26,NCI-H1792,0.31
27,NCI-H1793,0.506
